{"source": "patent US20020197689A1", "about": "“Insecticidal peptides and methods for use of same” (priority 2000, published 2002)", "key": {"[1]": {"tested_on": "Spodoptera litura early third-instar larvae", "assay": "Microinjection bioassay of insecticidal activity in Spodoptera litura third-instar larvae", "assay_type": "in vivo", "conditions": "for LD50: S. litura larvae, 50% mortality at 24 hours post-injection; for insecticidal activity (in words): S. litura third instar larvae", "protocol": "Due to the small amounts of material involved, bioassays are realized on a microscale, using a microinjection technique as described below. Drosophila melanogaster was used first as an insect model since it is amenable to injection of volumes of 50 nl volumes or less, and is very sensitive to spider toxins. In order to confirm activity against an economically important crop pest, Spodoptera litura early third-instar larvae were also used. S. litura is a highly polyphagous species, and is considered an international pest on cotton, tobacco, tomato, cabbage, cauliflower, peanuts, beans and other plants. However, S. litura is more resistant to toxins than D. melanogaster, and it requires injection of 10 to 100-fold higher doses. Application of the microinjection technique to S. litura larvae enabled its use as a test insect while lowering the amounts of sample used in the bioassays. In particular, early 3rd instar larvae (3 to 5 mg) can be injected successfully with volumes up to 800 nl of toxin composition. Lethal and paralytic activity of may be evaluated using D. melanogaster adult flies (˜0.7 mg/fly) and S. litura early third-instar larvae (5-8 mg/larva). See Escoubas, P., Pahna, H. F., Nakajima, T. (1995), “A Microinjection technique using Drosophila melanogaster for bioassay-guided isolation of neurotoxins in arthropod venoms”, Toxicon, 33(12), 1549-1555.\nTo perform the bioassay of SV toxin peptides, SV toxin peptides are injected into the dorsolateral area of Drosophila melanogaster adult flies or into the pronotum of 3rd instar Spodoptera litura larvae using a glass micropipette mounted on an automatic microinjector (A203XVY Nanoliter injector, WPI Precision Instruments, Sarasota, Fla., USA). Flies and larvae are examined five seconds after injection for evidence of involuntary contraction of body segments."}, "mice": {"tested_on": "mice", "assay": "Intracerebroventricular injection in mice", "assay_type": "in vivo, mice (C57B16)", "conditions": "ICV injection, 2 micrograms per mouse", "protocol": "Intracerebroventricular injections (0.1 111 crude venom-equivalent in 5 μl of 20 mg/ml BSA and 9 mg/ml NaCl) of each toxin were also performed on 20 g male mice (C57B16)."}}, "note": "Entries after “also recorded” stand apart in the source; their conditions may differ. Where no end group is shown, it is not given here.", "data": [{"substance": "PaspI (GCLGEGEKCADWSGPSCCDGFYCSCRSMPYCRCRNNS-NH2; disulfide (positions not given here); also: four disulfide bridges, pairing not given here)", "values": [{"measurement": "LD50", "setting": "[1]; injection", "value": "not significantly different from the LD50 measured for toxin AaIT"}, {"measurement": "LD50", "setting": "[1]; injection, listed as PaspI-NH2", "value": "9.7+4.1 μg/g"}, {"measurement": "insecticidal activity (in words)", "setting": "[1]; injection", "value": "most potent toxin towards S. litura; also recorded: greatest degree of insecticidal activity"}]}, {"substance": "PaspII (ACVGDGQRCASWSGPYCCDGYYCSCRSMPYCRCRNNS; disulfide (positions not given here); also: four disulfide bridges, pairing not given here)", "values": [{"measurement": "insecticidal activity (in words)", "setting": "[1]; injection", "value": "insecticidal activity"}, {"measurement": "toxic effect on mice", "setting": "mice", "value": "did have a toxic effect"}]}, {"substance": "PaspIII (ADCLNEGDWCADWSGPSCCGEMWCSCPGFGKCRCKK; disulfide (positions not given here); also: four disulfide bridges, pairing not given here)", "values": [{"measurement": "insecticidal activity (in words)", "setting": "[1]; injection", "value": "insecticidal activity"}]}, {"substance": "PaspIV (ACATKNQRCASWAGPYCCDGFYCSCRSYPGCMCRPNS; disulfide (positions not given here); also: four disulfide bridges, pairing not given here)", "values": [{"measurement": "insecticidal activity (in words)", "setting": "[1]; injection", "value": "insecticidal activity; also recorded: putatively least potent"}]}, {"substance": "XacI (ECIGGGGGCSVFSGPSCCGGTCKCKFVLIFPKGCHCT)", "values": [{"measurement": "paralysis of larvae", "setting": "[1]; isolated peptide, injection, assay procedure of Example 3", "value": "instantaneous paralysis"}, {"measurement": "time to some signs of recovery of treated larvae post-injection", "setting": "[1]; possibly low injection dose, below the LD50", "value": "8 to 12", "unit": "h"}]}]}
